Positions of bridges follow the written chain, without caps; N, C: chain ends. Non-standard residues stand in square brackets, D forms with d. Residues, ends and D or L forms follow the SMILES beside them. *: point of attachment. X1 = CC(=O)NC1[C@H](OCCCNC(=O)COc2cc(C(=O)*)cc(-c3ccccc3)c2)OC(CO)[C@@H](O[C@@H]2OC(CO)[C@H](O)[C@H](O[C@H]3OC(CO)[C@H](O)C(O)[C@@H]3O)C2O)[C@@H]1O; X2 = CC(=O)NC1C(O)[C@H](OC2OC(CO)C(O)[C@H](O[C@H]3OC(CO)C(O)C(O)C3O)C2O)C(CO)O[C@H]1OCCCNC(=O)COc1cc(C(=O)*)cc(-c2ccccc2)c1; PEG8 = NCCOCCOCCOCCOCCOCCOCCOCCOCCC(=O)O; Gly(octyl) = CCCCCCCC[C@H](N)C(=O)O; Dab = NCC[C@H](N)C(=O)O; Dap = NC[C@H](N)C(=O)O; Ahx = NCCCCCC(=O)O
Columns and labels:
Assay type in all cases: cell-based
[1] = test system: E. coli K1:018ac:H7 (ATCC 700973); test: Flow cytometric anti-Gal IgM antibody recruitment assay, E. coli; settings: for E. coli recruitment assay, side by side comparison with reference example (FIG. 2): 20 μM, in triplicate, E. coli ATCC 700973
Protocol: (§1) Flow Cytometric Antibody Recruitment Assay Using an Anti-Galα1-3Galβ1-4GlcNAc (Anti-Gal) Antibody
(§2) A secondary fluorescently labelled anti-IgM antibody was used to detect the anti-Gal antibody binding.
(§3) The assays were carried out in polystyrene 96-well U bottom plates (Costar). Frozen stocks of bacteria in mid-exponential phase were thawed, centrifuged and resuspended in LB broth, Miller (Fisher BP1426-500) at OD595=0.2. The bacteria was grown to mid-exponential phase (OD595=0.4), washed once with Hank's Balanced Salt Solution with calcium and magnesium (HBSS+/+) and then resuspended in HBSS+/+ at a bacterial D595=0.6. Bacteria was diluted ⅙ and placed in the 96-well U bottom plate. The bacteria were then incubated for 45 minutes with the compounds of Example 1-4 and reference compounds A-D (see Table 1) at 20 μM concentrations, Polymyxin B at 20 μM concentrations, or buffer alone (vehicle control), at room temperature and shaking at 450 rpm. The bacteria were then washed three times with 200 μL HBSS+/+, prior to adding 50 μL of the mouse/human chimeric anti-Gal IgM antibody M86 (Absolute Antibody Ab00532) at a final concentration of 25 μg/mL in HBSS+/+. The samples were incubated for 1 hour at room temperature shaking at 450 rpm. The bacteria were washed three times as above, prior to adding 100 μL of a FITC-labeled anti-human IgM secondary antibody (Biolegend 314506) at 10 μg/mL in HBSS+/+ and incubating at room temperature for 1 hour at 450 rpm. After three final washes with 200 μL HBSS+/+, the bacteria were resuspended in 200 μL HBSS+/+ and evaluated for anti-Gal antibody binding on a Cytoflex flow cytometer (Beckman Coulter). 50,000 counts of bacterial particles were sampled and the median fluorescent shift was recorded in the FITC-A channel. Data from all samples were analysed using Kaluza software (Beckman Coulter).
(§4) The fold shift over background was calculated by dividing the Median Fluorescent Intensity (MFI) obtained in the presence of 20 μM of the Example compounds by the MFI value obtained in the vehicle controls, i.e., the absence of Examples. The higher the fold shift over background, the more anti-Gal was bound to the bacterial surface. The shift in fluorescence intensity (FITC) occurs due to the binding event at each end of the molecule.
(§5) The fold shift over background was calculated by dividing the Median Fluorescent Intensity (MFI) obtained in the presence of 20 μM of the Example compounds (10 μM for Reference Example A and Example 2 against P. aeruginosa ATCC 27853, 6 μM for Reference Example A and Example 2 against P. aeruginosa PAO1 ATCC 15692) by the MFI value obtained in the vehicle controls, i.e., the absence of Examples. […] The shift in fluorescence intensity (FITC) occurs due to the binding event at each end of the molecule.

[2] = test system: K. pneumoniae (NCTC 13465); test: Flow cytometric anti-Gal IgM antibody recruitment assay, K. pneumoniae; settings: for IgM Recruitment (20 μM, Average fold change) K. pneumoniae NCTC 134655: 20 μM compound, anti-Gal M86 IgM, MFI fold shift over vehicle control; for K. pneumoniae recruitment assay, side by side comparison with reference example (FIG. 2): 20 μM, in triplicate
Protocol: as §1, §2, §3, §4
The fold shift over background was calculated by dividing the Median Fluorescent Intensity (MFI) obtained in the presence of 20 μM of the Example compounds (10 μM for Reference Example A and Example 2 against P. aeruginosa ATCC 27853, 6 μM for Reference Example A and Example 2 against P. aeruginosa PAO1 ATCC 15692) by the MFI value obtained in the vehicle controls, i.e., the absence of Examples. The higher the fold shift over background, the more anti-Gal was bound to the bacterial surface. The shift in fluorescence intensity (FITC) occurs due to the binding event at each end of the molecule.

[3] = test system: P. aeruginosa (ATCC 27853); test: Flow cytometric anti-Gal IgM antibody recruitment assay, P. aeruginosa ATCC 27853; settings: for IgM Recruitment (20 μM, Average fold change) P. aeruginosa ATCC 27853: 20 μM compound, anti-Gal M86 IgM, MFI fold shift over vehicle control
Protocol: as §1, §2, §3, §4, §5

| Molecule | E. coli recruitment assay, side by side comparison with reference example (FIG. 2) [1] | IgM Recruitment (20 μM, Average fold change) K. pneumoniae NCTC 134655 [2] | K. pneumoniae recruitment assay, side by side comparison with reference example (FIG. 2) [2] | IgM Recruitment (20 μM, Average fold change) P. aeruginosa ATCC 27853 [3] | P. aeruginosa recruitment assay, side by side comparison with reference example (FIG. 2C) ([3]; 20 μM, in triplicate) | IgM Recruitment (20 μM, Average fold change) E. coli K1 ATCC700973 ([1]; 20 μM compound, anti-Gal M86 IgM, MFI fold shift over vehicle control) |
| --- | --- | --- | --- | --- | --- | --- |
| CCCCCCCC[C@H](NC(=O)CCOCCOCCOCCOCCOCCOCCOCCOCCNC(=O)c1cc(OCC(=O)NCCCO[C@@H]2OC(CO)[C@@H](O[C@@H]3OC(CO)[C@H](O)[C@H](O[C@H]4OC(CO)[C@H](O)C(O)[C@@H]4O)C3O)[C@H](O)C2NC(C)=O)cc(-c2ccccc2)c1)C(=O)N[C@@H](CCN)C(=O)N[C@H](C(=O)N[C@@H](CN)C(=O)N[C@H]1CCNC(=O)[C@H]([C@@H](C)O)NC(=O)[C@H](CCN)NC(=O)[C@H](CCN)NC(=O)[C@H](CC(C)C)NC(=O)[C@@H](Cc2ccccc2)NC(=O)[C@H](CCN)NC1=O)[C@@H](C)O (stereo partly shown) [Example 4] ({X1-PEG8}-[Gly(octyl)][Dab]T[Dap][Dab][Dab][dF]L[Dab][Dab]T; lactam 5-C) | superiority over Reference Example D | 898 (n = 2) fold change | superiority over Reference Example D | – | – | – |
| CCCCCCCC[C@H](NC(=O)CCOCCOCCOCCOCCOCCOCCOCCOCCNC(=O)c1cc(OCC(=O)NCCCO[C@@H]2OC(CO)[C@@H](O[C@@H]3OC(CO)[C@H](O)[C@H](O[C@H]4OC(CO)[C@H](O)C(O)[C@@H]4O)C3O)[C@H](O)C2NC(C)=O)cc(-c2ccccc2)c1)C(=O)N[C@@H](CCN)C(=O)N[C@H](C(=O)N[C@H](CO)C(=O)N[C@H]1CCNC(=O)[C@H]([C@@H](C)O)NC(=O)[C@H](CCN)NC(=O)[C@H](CCN)NC(=O)[C@H](CC(C)C)NC(=O)[C@@H](Cc2ccccc2)NC(=O)[C@H](CCN)NC1=O)[C@@H](C)O (stereo partly shown) [Example 3] ({X1-PEG8}-[Gly(octyl)][Dab]T[dS][Dab][Dab][dF]L[Dab][Dab]T; lactam 5-C) | superiority over Reference Example C | 1015 (n = 4) fold change | superiority over Reference Example C | 1491 (n = 4) fold change | superiority over Reference Example C | – |
| CCCCCCCC[C@H](NC(=O)CCCCCNC(=O)CCCCCNC(=O)c1cc(OCC(=O)NCCCO[C@@H]2OC(CO)[C@@H](OC3OC(CO)C(O)[C@H](O[C@H]4OC(CO)C(O)C(O)C4O)C3O)C(O)C2NC(C)=O)cc(-c2ccccc2)c1)C(=O)N[C@@H](CCN)C(=O)N[C@H](C(=O)N[C@@H](CCN)C(=O)N[C@H]1CCNC(=O)[C@H]([C@@H](C)O)NC(=O)[C@H](CCN)NC(=O)[C@H](CCN)NC(=O)[C@H](CC(C)C)NC(=O)[C@@H](Cc2ccccc2)NC(=O)[C@H](CCN)NC1=O)[C@@H](C)O (stereo partly shown) [Example 1] ({X2-Ahx-Ahx}-[Gly(octyl)][Dab]T[Dab][Dab][Dab][dF]L[Dab][Dab]T; lactam 5-C) | superiority over Reference Example B | – | – | 391 (n = 2) fold change | – | – |
| Polymyxin B [PMB, reference compound] | – | 1 (n = 2) fold change | – | 1 (n = 5) fold change | – | 1 (n = 5) fold change |
